Measurements taken from ChEMBL document CHEMBL1145735, “Synthesis and antitumor activity of novel C-8 ester derivatives of leinamycin” (Bioorg Med Chem Lett, 2003).

Key:
[1] = tested on: Mus musculus; experiment: In vivo antitumor activity against lymphocytic leukemia P388 in mice expressed as maximal increase in life span at an optimal dose of 16 mg/kg.; assay type: functional
[2] = tested on: HeLa; experiment: In vitro antiproliferative activity against HeLa S3 cells.; assay type: functional, cell-based; conditions: Homo sapiens
[3] = tested on: Mus musculus; experiment: In vivo antitumor activity against murine sarcoma 180 cells at an optimal dose of 16 mg/kg.; assay type: functional
[4] = tested on: Mus musculus; experiment: In vivo antitumor activity against lymphocytic leukemia P388 in mice expressed as maximal increase in life span at an optimal dose of 4 mg/kg.; assay type: functional
[5] = tested on: Mus musculus; experiment: Antitumor activity against human A-2780 tumor cells, at a dose of 12 mg/kg upon i.v. administration in nude mice; assay type: functional; conditions: route intravenous
[6] = tested on: Mus musculus; experiment: In vivo antitumor activity against murine sarcoma 180 cells at an optimal dose of 8 mg/kg.; assay type: functional
[7] = tested on: Mus musculus; experiment: Antitumor activity against human Lu-65 tumor cells, at a dose of 12 mg/kg upon i.v. administration in nude mice; assay type: functional; conditions: route intravenous
[8] = tested on: Mus musculus; experiment: In vivo antitumor activity against lymphocytic leukemia P388 in mice expressed as maximal increase in life span at an optimal dose of 8 mg/kg.; assay type: functional
[9] = tested on: Mus musculus; experiment: In vivo antitumor activity against murine sarcoma 180 cells at an optimal dose of 1 mg/kg.; assay type: functional
[10] = tested on: Mus musculus; experiment: Antitumor activity against human HCT116 tumor cells, at a dose of 12 mg/kg upon i.v. administration in nude mice; assay type: functional; conditions: route intravenous
[11] = tested on: Mus musculus; experiment: Antitumor activity against human HCT116 tumor cells, at a dose of 8 mg/kg upon i.v. administration in nude mice; assay type: functional; conditions: route intravenous
[12] = tested on: Mus musculus; experiment: Antitumor activity against human Lu-65 tumor cells, at a dose of 8 mg/kg upon i.v. administration in nude mice; assay type: functional; conditions: route intravenous
[13] = tested on: Mus musculus; experiment: Antitumor activity against human A-2780 tumor cells, at a dose of 8 mg/kg upon i.v. administration in nude mice; assay type: functional; conditions: route intravenous
[14] = tested on: Mus musculus; experiment: In vivo antitumor activity against murine sarcoma 180 cells at an optimal dose of 2 mg/kg.; assay type: functional
[15] = tested on: Mus musculus; experiment: In vivo antitumor activity against lymphocytic leukemia P388 in mice expressed as maximal increase in life span at an optimal dose of 2 mg/kg.; assay type: functional
[16] = tested on: Mus musculus; experiment: Antitumor activity against human Lu-65 tumor cells, at a dose of 5.3 mg/kg upon i.v. administration in nude mice; assay type: functional; conditions: route intravenous
[17] = tested on: Mus musculus; experiment: In vivo antitumor activity against murine sarcoma 180 cells at an optimal dose of mg/kg.; assay type: functional
[18] = tested on: Mus musculus; experiment: In vivo antitumor activity against lymphocytic leukemia P388 in mice expressed as maximal increase in life span at an optimal dose of 1 mg/kg.; assay type: functional
[19] = tested on: Mus musculus; experiment: Antitumor activity against human HCT116 tumor cells, at a dose of 18 mg/kg upon i.v. administration in nude mice; assay type: functional; conditions: route intravenous
[20] = tested on: Mus musculus; experiment: Antitumor activity against human A-2780 tumor cells, at a dose of 18 mg/kg upon i.v. administration in nude mice; assay type: functional; conditions: route intravenous
[21] = tested on: Mus musculus; experiment: Antitumor activity against human Lu-65 tumor cells, at a dose of 18 mg/kg upon i.v. administration in nude mice; assay type: functional; conditions: route intravenous
[22] = tested on: Mus musculus; experiment: Antitumor activity against human A-2780 tumor cells, at a dose of 5.3 mg/kg upon i.v. administration in nude mice; assay type: functional; conditions: route intravenous
[23] = tested on: Mus musculus; experiment: Antitumor activity against human HCT116 tumor cells, at a dose of 5.3 mg/kg upon i.v. administration in nude mice; assay type: functional; conditions: route intravenous
[24] = tested on: Mus musculus; experiment: In vivo antitumor activity against murine sarcoma 180 cells at an optimal dose of 4 mg/kg.; assay type: functional
[25] = tested on: Mus musculus; experiment: Antitumor activity against human Lu-65 tumor cells, at a dose of 8.0 mg/kg upon i.v. administration in nude mice; assay type: functional; conditions: route intravenous
[26] = tested on: Mus musculus; experiment: Antitumor activity against human HCT116 tumor cells, at a dose of 8.0 mg/kg upon i.v. administration in nude mice; assay type: functional; conditions: route intravenous
[27] = tested on: Mus musculus; experiment: Antitumor activity against human A-2780 tumor cells, at a dose of 8.0 mg/kg upon i.v. administration in nude mice; assay type: functional; conditions: route intravenous

## C/C1=C\[C@@H](OC(=O)CCNC(=O)CCNC(=O)OCc2ccccc2)C(=O)/C=C/C=C\c2csc(n2)[C@H](C)NC(=O)C[C@@]2(CC1)[S+]([O-])SC(=O)[C@]2(C)O (stereo not given in full)
[1]
  ILS at 16 mg/kg: 62%
[2]
  IC50: 61 nM
[3]
  T/C: 0.58

## C/C1=C\[C@@H](OC(=O)CNC(=O)CNC(=O)OC(C)(C)C)C(=O)/C=C/C=C/c2csc(n2)[C@@H](C)N2C(=O)C[C@@]([C@@](C)(O)C(=O)SCc3oc(=O)oc3C)(CC1)[S+]2[O-] (stereo not given in full)
[4]
  ILS at 4 mg/kg: 39%
[5]
  T/C: 0.51
[2]
  IC50: 14 nM
[6]
  T/C: 0.39
[7]
  T/C: 0.33

## C/C1=C\[C@@H](OC(=O)CNC(=O)CCNC(=O)OC(C)(C)C)C(=O)/C=C/C=C/c2csc(n2)[C@@H](C)N2C(=O)C[C@@]([C@@](C)(O)C(=O)SCc3oc(=O)oc3C)(CC1)[S+]2[O-] (stereo not given in full)
[8]
  ILS at 8 mg/kg: 70%
[2]
  IC50: 12 nM
[3]
  T/C: 0.23

## COCCOCC(=O)O[C@@H]1/C=C(\C)CC[C@]2(CC(=O)N[C@@H](C)c3nc(cs3)/C=C\C=C\C1=O)[S+]([O-])SC(=O)[C@]2(C)O (stereo not given in full)
[2]
  IC50: 26 nM
[9]
  T/C: 0.72

## C/C1=C\[C@@H](OC(=O)CNC(=O)CNC(=O)OCc2ccccc2)C(=O)/C=C/C=C\c2csc(n2)[C@H](C)NC(=O)C[C@@]2(CC1)[S+]([O-])SC(=O)[C@]2(C)O (stereo not given in full)
[4]
  ILS at 4 mg/kg: 72%
[5]
  T/C: 0.63
[2]
  IC50: 23 nM
[6]
  T/C: 0.3
[10]
  T/C: 0.48
[7]
  T/C: 0.3

## C/C1=C\[C@@H](OC(=O)CNC(=O)[C@@H](C)NC(=O)OCc2ccccc2)C(=O)/C=C/C=C\c2csc(n2)[C@H](C)NC(=O)C[C@@]2(CC1)[S+]([O-])SC(=O)[C@]2(C)O (stereo not given in full)
[8]
  ILS at 8 mg/kg: 58%
[2]
  IC50: 34 nM
[3]
  T/C: 0.61

## C/C1=C\[C@@H](OC(=O)CNC(=O)CNC(=O)OC(C)(C)C)C(=O)/C=C/C=C\c2csc(n2)[C@H](C)NC(=O)C[C@@]2(CC1)[S+]([O-])SC(=O)[C@]2(C)O (stereo not given in full)
[8]
  ILS at 8 mg/kg: 46%
[2]
  IC50: 20 nM
[6]
  T/C: 0.22
[11]
  T/C: 0.7
[12]
  T/C: 0.43
[13]
  T/C: 0.73

## C/C1=C\[C@@H](OC(=O)CNC(=O)CCNC(=O)OCc2ccccc2)C(=O)/C=C/C=C\c2csc(n2)[C@H](C)NC(=O)C[C@@]2(CC1)[S+]([O-])SC(=O)[C@]2(C)O (stereo not given in full)
[1]
  ILS at 16 mg/kg: 76%
[2]
  IC50: 20 nM
[6]
  T/C: 0.55

## C/C1=C\[C@@H](OC(=O)CNC(=O)CNC(=O)c2ccccc2)C(=O)/C=C/C=C/c2csc(n2)[C@@H](C)N2C(=O)C[C@@]([C@@](C)(O)C(=O)SCc3oc(=O)oc3C)(CC1)[S+]2[O-] (stereo not given in full)
[1]
  ILS at 16 mg/kg: 90%
[2]
  IC50: 32 nM
[6]
  T/C: 0.46

## C/C1=C\[C@@H](O)C(=O)/C=C/C=Cc2csc(n2)[C@@H](C)N2C(=O)C[C@@]([C@@](C)(O)C(=O)SCc3oc(=O)oc3C)(CC1)[S+]2[O-] (stereo not given in full)
[14]
  T/C: 0.67
[15]
  ILS at 2 mg/kg: 65%

## C/C1=C\[C@@H](OC(=O)CCNC(=O)CNC(=O)OCc2ccccc2)C(=O)/C=C/C=C\c2csc(n2)[C@H](C)NC(=O)C[C@@]2(CC1)[S+]([O-])SC(=O)[C@]2(C)O (stereo not given in full)
[1]
  ILS at 16 mg/kg: 71%
[2]
  IC50: 150 nM
[3]
  T/C: 0.69

## COCCOCCOCCOCCOCCOCC(=O)O[C@@H]1/C=C(\C)CC[C@]2(CC(=O)N[C@@H](C)c3nc(cs3)/C=C\C=C\C1=O)[S+]([O-])SC(=O)[C@]2(C)O (stereo not given in full)
[2]
  IC50: 11 nM
[6]
  T/C: 0.3
[12]
  T/C: 0.2

## COCCOCCOCC(=O)O[C@@H]1/C=C(\C)CC[C@]2([C@@](C)(O)C(=O)SCc3oc(=O)oc3C)CC(=O)N([C@H](C)c3nc(cs3)/C=C/C=C/C1=O)[S+]2[O-] (stereo not given in full)
[16]
  T/C: 0.35
[2]
  IC50: 5.5 nM
[6]
  T/C: 0.39
[15]
  ILS at 2 mg/kg: 54%

## C/C1=C\[C@@H](OC(=O)CNC(=O)OCc2ccccc2)C(=O)/C=C/C=C\c2csc(n2)[C@H](C)NC(=O)C[C@@]2(CC1)[S+]([O-])SC(=O)[C@]2(C)O (stereo not given in full)
[8]
  ILS at 8 mg/kg: 54%
[2]
  IC50: 6.2 nM
[17]
  T/C: 0.89

## C/C1=C\[C@@H](O)C(=O)/C=C/C=C\c2csc(n2)[C@H](C)NC(=O)C[C@@]2(CC1)[S+]([O-])SC(=O)[C@]2(C)O (stereo not given in full)
[14]
  T/C: 0.44
[2]
  IC50: 28 nM
[18]
  ILS at 1 mg/kg: 64%

## CC(=O)NCC(=O)O[C@@H]1/C=C(\C)CC[C@]2(CC(=O)N[C@@H](C)c3nc(cs3)/C=C\C=C\C1=O)[S+]([O-])SC(=O)[C@]2(C)O (stereo not given in full)
[4]
  ILS at 4 mg/kg: 66%
[14]
  T/C: 0.67
[2]
  IC50: 13 nM

## C/C1=C\[C@@H](OC(=O)CNC(=O)CCNC(=O)OCc2ccccc2)C(=O)/C=C/C=C/c2csc(n2)[C@@H](C)N2C(=O)C[C@@]([C@@](C)(O)C(=O)SCc3oc(=O)oc3C)(CC1)[S+]2[O-] (stereo not given in full)
[1]
  ILS at 16 mg/kg: 91%
[2]
  IC50: 11 nM
[3]
  T/C: 0.15
[19]
  T/C: 0.64
[20]
  T/C: 0.46
[21]
  T/C: 0.48

## C/C1=C\[C@@H](OC(=O)CNC=O)C(=O)/C=C/C=C\c2csc(n2)[C@H](C)NC(=O)C[C@@]2(CC1)[S+]([O-])SC(=O)[C@]2(C)O (stereo not given in full)
[22]
  T/C: 0.29
[8]
  ILS at 8 mg/kg: 56%
[16]
  T/C: 0.43
[23]
  T/C: 0.62
[2]
  IC50: 11 nM
[24]
  T/C: 0.46

## C/C1=C\[C@@H](O[C@H]2CCCCO2)C(=O)/C=C/C=Cc2csc(n2)[C@@H](C)N2C(=O)C[C@@]([C@@](C)(O)C(=O)SCc3oc(=O)oc3C)(CC1)[S+]2[O-] (stereo not given in full)
[25]
  T/C: 0.33
[26]
  T/C: 0.48
[27]
  T/C: 0.43
